Patent publication US20210161134A1, “HERBICIDE AND METHOD OF APPLYING A HERBICIDE” (priority 2015, published 2021)
Read-outs that look alike come from different tables or passages of the source.

Columns and labels:
dandilions = assay: Killing of dandelions by amino acid herbicide; assay type: in vivo, dandelion
Rush Skeleton weed = assay: Killing of rush skeleton weed by amino acid (FIG. 3); assay type: in vivo
morning glories = assay: Killing of morning glories by amino acid; assay type: in vivo
hounds tongue = assay: Killing of hounds tongue by amino acid; assay type: in vivo
Field Bindweed = assay: Killing of field bindweed by amino acid (FIG. 4); assay type: in vivo
common yarroen = assay: Killing of common yarrow by amino acid; assay type: in vivo
hoary alssum = assay: Killing of hoary alyssum by amino acid; assay type: in vivo
wild rubarb = assay: Killing of wild rhubarb by amino acid; assay type: in vivo
leafy spurge = assay: Killing of leafy spurge by amino acids; assay type: in vivo
Canada thistle = assay: Killing of Canada thistle by amino acid herbicide (FIG. 1)
Spotted Knapweed = assay: Killing of spotted knapweed by amino acids; assay type: in vivo

| Compound | kill of the weed (dandilions) | kill of the weed (Rush Skeleton weed) | kill of the weed (Rush Skeleton weed; listed as Lysine) | kill of the weed (morning glories) | kill of the weed (hounds tongue) | kill of the weed (Field Bindweed) | kill of the weed (common yarroen) | kill of the weed (hoary alssum) | kill of the weed (wild rubarb) | kill of the weed (leafy spurge) | kill of the weed (Canada thistle) | kill of the weed (Canada thistle; listed as lysine) | kill of the weed (poa anna) | kill of the weed (Spotted Knapweed) | kill of the weed (eurasian milfoil) | kill of the weed (Kudzu) | kill of the weed (Kudzu; listed as Methionine) |
| --- | --- | --- | --- | --- | --- | --- | --- | --- | --- | --- | --- | --- | --- | --- | --- | --- | --- |
| NCCCC[C@H](N)C(=O)O [L-Lysine] | kill | kill | killed | kill | kill | killed | kill | kill | kill | kill | kill | kills the plant |  |  |  |  |  |
| CSCC[C@H](N)C(=O)O [L-methionine] |  |  |  |  |  |  |  |  |  |  | kills the plant |  | kill | kill | kill | kill | killed |
| CC(C)[C@H](N)C(=O)O [Valine] |  |  |  |  | killed |  |  |  |  |  |  |  |  |  |  |  |  |
